Patent US20150313241A1, “Pesticidal Mixtures” (BASF Corporation, priority 2012, published 2015)

Test system: wheat
Experiment: Improvement of plant height in wheat (greenhouse pot trial, Use Example H-2)
Assay type: in vivo
Conditions: wheat cv. J B Asano, 14 days at 20° C., % compared to untreated control (100 = 13.9 cm), pyraclostrobin 5 g ai/100 kg seeds as seed treatment, B. simplex broth 10 ml per seed as drench
Procedure: Pyraclostrobin was applied as commercial seed treatment formulation STAMINA (200 g/L a.i., BASF SE, Ludwigshafen, Germany).
In pot trials in Limburgerhof greenhouses, Bacillus simplex ABU 288 was tested in wheat and maize as solo products and in combination with pyraclostrobin to show effects on plant height. The application of the pyraclostrobin was done as seed treatment and the seeds were treated in the BASF Seed Solutions Technology Center (SSTC) Limburgerhof using a batch lab treater. The respective amounts of seeds was placed in the bowl of the treater and the slurry was dosed on the spinning disk.
The bacterials were grown in shake flasks and used as fermentation broth with a CFU of at least 1×10^12 per ml. This broth was added as a drench solution directly adjacent to the seeds with 10 ml for each seed kernel which makes 50 ml per pot.
The trial was sown in 8 cm pots and a mix of peat substrate and sand (ratio 1:4) was used as a substrate. […]
For the assessment, the plant height from all plants was measured in cm. […]
The expected relative plant height of active compound combinations were determined using Colby's formula (Colby, S. R. “Calculating synergistic and antagonistic responses of herbicide combinations”, Weeds 15, pp. 20-22, 1967) and compared with the observed efficacies. […]

pyraclostrobin was tested, and the “Observed relative plant height” value was 99.4%.
